Data set [1] deals with ATP-dependent translocase ABCB1 (Homo sapiens, UniProt P08183). Put plainly: TP_TRANSPORTER: transepithelial transport (basal to apical) in Caco-2 cells. The class given is functional, cell-based.
Data set [2] addresses P-glycoprotein (ABCB1) (Homo sapiens, UniProt P08183). Put plainly: TP_TRANSPORTER: inhibition of Vinblastine transepithelial transport (basal to apical) (Vinblastine: 0.05 uM, Pristinamycin IA: 100 uM) in Caco-2 cells. The conditions noted are these: Caco-2, probe Vinblastine 0.05 uM. The data set is classed as functional, cell-based.

In ChEMBL document CHEMBL2074283, “Interaction of pristinamycin IA with P-glycoprotein in human intestinal epithelial cells” (Eur J Pharmacol, 1995) one finds Activity and inhibition data, which are given here for one compound.

Bridge positions count the residues as written; N and C are the ends. Square brackets hold non-standard residues; d marks the D form. Peptide text beside a SMILES is read from it. * marks the point of attachment. NMePhe(4-NMe2) = CN[C@@H](Cc1ccc(N(C)C)cc1)C(=O)O; Pip(4-oxo) = O=C1CCN[C@H](C(=O)O)C1; Picolinoyl(3-OH) = O=C(c1ncccc1O)*; Phg = N[C@H](C(=O)O)c1ccccc1; dAbu = CC[C@@H](N)C(=O)O

Chain of ATP-dependent translocase ABCB1 (P08183 whole entry): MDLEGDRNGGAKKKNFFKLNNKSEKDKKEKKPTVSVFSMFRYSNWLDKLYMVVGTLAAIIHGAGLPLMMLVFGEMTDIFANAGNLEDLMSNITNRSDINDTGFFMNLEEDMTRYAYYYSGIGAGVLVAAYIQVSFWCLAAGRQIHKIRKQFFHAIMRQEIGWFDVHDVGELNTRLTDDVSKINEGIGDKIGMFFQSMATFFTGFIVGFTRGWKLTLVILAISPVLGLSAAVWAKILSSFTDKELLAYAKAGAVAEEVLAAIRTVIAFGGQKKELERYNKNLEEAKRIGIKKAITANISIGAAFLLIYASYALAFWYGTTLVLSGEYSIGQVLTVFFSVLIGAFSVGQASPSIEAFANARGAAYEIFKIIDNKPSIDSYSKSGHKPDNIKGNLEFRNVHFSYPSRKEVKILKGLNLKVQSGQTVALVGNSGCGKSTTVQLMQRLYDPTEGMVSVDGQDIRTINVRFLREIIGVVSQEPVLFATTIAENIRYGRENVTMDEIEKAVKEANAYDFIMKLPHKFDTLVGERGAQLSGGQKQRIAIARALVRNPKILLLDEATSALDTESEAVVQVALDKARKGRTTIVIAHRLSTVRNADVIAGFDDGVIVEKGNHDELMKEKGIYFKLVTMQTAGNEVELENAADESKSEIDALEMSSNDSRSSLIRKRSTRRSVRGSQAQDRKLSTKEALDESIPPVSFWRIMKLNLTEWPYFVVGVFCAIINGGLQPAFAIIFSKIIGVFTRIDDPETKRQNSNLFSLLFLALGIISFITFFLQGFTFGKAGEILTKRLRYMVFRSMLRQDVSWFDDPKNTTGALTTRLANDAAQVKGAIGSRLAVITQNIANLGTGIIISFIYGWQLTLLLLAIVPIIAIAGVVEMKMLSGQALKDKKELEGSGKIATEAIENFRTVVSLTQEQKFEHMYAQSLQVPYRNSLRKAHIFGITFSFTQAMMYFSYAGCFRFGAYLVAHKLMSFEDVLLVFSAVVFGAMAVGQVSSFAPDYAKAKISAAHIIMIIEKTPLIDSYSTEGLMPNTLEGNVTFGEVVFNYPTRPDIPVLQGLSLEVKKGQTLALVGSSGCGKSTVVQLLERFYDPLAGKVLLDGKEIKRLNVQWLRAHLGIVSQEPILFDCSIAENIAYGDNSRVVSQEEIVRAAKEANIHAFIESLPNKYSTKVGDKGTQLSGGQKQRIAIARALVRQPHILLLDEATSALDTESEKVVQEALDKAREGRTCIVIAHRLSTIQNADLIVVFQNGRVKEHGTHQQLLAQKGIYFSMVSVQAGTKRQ
Chain of P-glycoprotein (ABCB1) (P08183 whole entry): as above

For `CC[C@H]1NC(=O)[C@@H](NC(=O)c2ncccc2O)[C@@H](C)OC(=O)[C@H](c2ccccc2)NC(=O)[C@@H]2CC(=O)CCN2C(=O)[C@H](Cc2ccc(N(C)C)cc2)N(C)C(=O)[C@@H]2CCCN2C1=O` [PRISTINAMYCIN 1A] ({Picolinoyl(3-OH)}-T[dAbu]P[NMePhe(4-NMe2)][Pip(4-oxo)][Phg]; ester 1-C), the Activity result in data set [1] is “substrate [+]”. The compound also had an inhibition at 100 µM in data set [2] of 55%.
